# Measurements from paper PMC12410356 (International Journal for Parasitology: Drugs and Drug …, 2025).
# Legend:
# [1] = test system: E. multilocularis metacestode vesicles; assay: Metacestode vesicle viability assay (ATP, CellTiter-Glo); assay type: cell-based, Echinococcus multilocularis
# Description: Viability was assessed after 12 days using the same metacestode vesicles as for the PGI release assay. Triton X-100 was added to each well to a final concentration of 0.1 %. Subsequently the metacestode vesicles were broken mechanically and 50 μL of the supernatant was mixed with 50 μL of CellTiter-Glo® buffer (Promega, Dübendorf, Switzerland). Measurements were performed on a HIDEX Sense microplate reader.
# [2] = test system: E. multilocularis metacestode vesicles; assay: Phosphoglucose isomerase (PGI) release assay (damage-marker release) on metacestode vesicles; assay type: cell-based, Echinococcus multilocularis; details: 10 μM; for PGI d5 (relative PGI release): 5 days; for PGI d12 (relative PGI release): 12 days
# Description: In order to quantify the drug-induced damage on whole metacestode vesicles, phosphoglucose isomerase (PGI) assay was performed as described previously ([Stadelmann et al., 2010]) with few adaptations published recently ([Kaethner et al., 2023]). In short, 8 to 12 weeks-old metacestode vesicles were purified using 2 % sucrose with subsequent washes in PBS. Metacestode vesicles were diluted in two volumes of DMEM without phenol red containing penicillin (100 U/mL) and streptomycin (100 μg/mL). […] 0.1 % DMSO was used as a negative solvent control and 0.1 % Triton X-100 was used as a positive total damage control. Metacestode vesicles were incubated under a humid, 5 % CO2 atmosphere at 37 °C. After five and twelve days, supernatant was taken and pictures were made using a Nikon SMZ18 stereo microscope (Nikon, Basel, Switzerland) at 7.5 × magnification. PGI activity in the supernatants was measured on a HIDEX Sense microplate reader (Hidex, Turku, Finland). The corresponding values of the DMSO controls were subtracted from the values of the compounds and then PGI activity was calculated relative to 0.1 % Triton X-100. […] IC50 values were calculated applying the 3 parameter Weibull type 1 in R for each of the three independent experiments ([Ritler et al., 2020]).
# [3] = overview screen, singlets, relative to 0.1 % Triton X-100, DMSO subtracted
# [4] = overview screen, 10 μM, singlets, 12 days, relative to DMSO control
# [5] = confirmation screen, triplicates, mean
smiles,measurement,setting,value
O=C1CCC(N2C(=O)c3ccccc3C2=O)C(=O)N1 (stereo not drawn) [MMV002612],Viability d12 (relative viability),[1]; 10 µM,99.2866%
same,PGI d5 (relative PGI release),[2]; [3],-1.046%
same,PGI d12 (relative PGI release),[2]; [3],-2.884%
NCc1ccc(S(N)(=O)=O)cc1 [MMV002665],Viability d12 (relative viability),[1]; 10 µM,140.59%
same,PGI d5 (relative PGI release),[2]; [3],0.8805%
same,PGI d12 (relative PGI release),[2]; [3],-5.499%
C[N+]1(C)CCCC(OC(=O)C(O)(c2ccccc2)c2ccccc2)C1 (stereo not drawn) [MMV002676],Viability d12 (relative viability),[1]; [4],80.9524%
same,PGI d5 (relative PGI release),[2]; [3],-4.414%
same,PGI d12 (relative PGI release),[2]; [3],-4.73%
Cc1cc(C2CCCCC2)n(O)c(=O)c1 [MMV002731],Viability d12 (relative viability),[1]; 10 µM,50.1817%
same,PGI d5 (relative PGI release),[2]; [3],-0.5492%
same,PGI d12 (relative PGI release),[2]; [3],-23.4097%
Cc1onc(-c2ccccc2Cl)c1C(=O)N[C@@H]1C(=O)N2[C@@H]1SC(C)(C)[C@@H]2C(=O)O [MMV002740],Viability d12 (relative viability),[1]; 10 µM,55.1081%
same,PGI d5 (relative PGI release),[2]; [3],-1.463%
same,PGI d12 (relative PGI release),[2]; [3],-24.5158%
COc1ccc2c(c1OC)C(=O)OC2C1c2c(cc3c(c2OC)OCO3)CCN1C (stereo not drawn) [MMV002780],Viability d12 (relative viability),[1]; [4],419.126%
same,PGI d5 (relative PGI release),[2]; [3],-0.3679%
same,PGI d12 (relative PGI release),[2]; [3],-3.872%
C[C@H]1CC[C@]2(NC1)O[C@H]1C[C@H]3[C@@H]4CC[C@H]5C[C@@H](O)CC[C@]5(C)[C@H]4CC[C@]3(C)[C@H]1[C@@H]2C.Cl [MMV003069],Viability d12 (relative viability),[1]; [4],243.729%
same,PGI d5 (relative PGI release),[2]; [3],-0.8739%
same,PGI d12 (relative PGI release),[2]; [3],-0.2652%
CC[C@H]1OC(=O)[C@H](C)[C@@H](O[C@H]2C[C@@](C)(OC)[C@@H](O)[C@H](C)O2)[C@H](C)[C@@H](O[C@@H]2O[C@H](C)C[C@H](N(C)C)[C@H]2O)[C@](C)(O)C[C@@H](C)C(=O)[C@H](C)[C@@H](O)[C@]1(C)O [MMV003137],Viability d12 (relative viability),[1]; [4],63.8752%
same,PGI d5 (relative PGI release),[2]; [3],1.971%
same,PGI d12 (relative PGI release),[2]; [3],-21.4001%
COC(=O)Nc1nc2cc(Sc3ccccc3)ccc2[nH]1 [MMV003143],Viability d12 (relative viability),[1]; [4],13.6935%
same,PGI d5 (relative PGI release),[2]; [3],2.636%
same,PGI d12 (relative PGI release),[2]; [3],9.38%
NC(=O)c1cnccn1 [MMV003249],Viability d12 (relative viability),[1]; [4],123.464%
same,PGI d5 (relative PGI release),[2]; [3],1.909%
same,PGI d12 (relative PGI release),[2]; [3],-3.346%
Cc1oncc1C(=O)Nc1ccc(C(F)(F)F)cc1 [MMV003291],Viability d12 (relative viability),[1]; 10 µM,99.9529%
same,PGI d5 (relative PGI release),[2]; [3],0.3849%
same,PGI d12 (relative PGI release),[2]; [3],-17.479%
CC#C[C@]1(O)CC[C@H]2[C@@H]3CCC4=CC(=O)CCC4=C3[C@@H](c3ccc(N(C)C)cc3)C[C@@]21C [MMV003297],Viability d12 (relative viability),[1]; 10 µM,92.6641%
same,PGI d5 (relative PGI release),[2]; [3],-0.9731%
same,PGI d12 (relative PGI release),[2]; [3],-0.6398%
COc1ccc(C2CNC(=O)C2)cc1OC1CCCC1 (stereo not drawn) [MMV003738],Viability d12 (relative viability),[1]; [4],180.575%
same,PGI d5 (relative PGI release),[2]; [3],-0.5058%
same,PGI d12 (relative PGI release),[2]; [3],-19.6179%
Nc1nc(=O)[nH]cc1F [MMV004508],Viability d12 (relative viability),[1]; 10 µM,219.514%
same,PGI d5 (relative PGI release),[2]; [3],-1.885%
same,PGI d12 (relative PGI release),[2]; [3],-20.764%
Cc1[nH]c2ccccc2c1CCNCc1ccc(/C=C/C(=O)NO)cc1 [MMV010036],Viability d12 (relative viability),[1]; [4],57.5391%
same,PGI d5 (relative PGI release),[2]; [3],1.148%
same,PGI d12 (relative PGI release),[2]; [3],-1.326%
COc1ccc2nc(-c3ccccc3)cc(O)c2c1 [MMV011565],Viability d12 (relative viability),"[1]; confirmation screen, 10 μM, triplicates, mean, 12 days",78.39%
same,Viability d12 (relative viability),[1]; [4],19.5448%
same,PGI d5 (relative PGI release),[2]; [5],0.13%
same,PGI d12 (relative PGI release),[2]; [5],-0.59%
same,PGI d5 (relative PGI release),[2]; [3],5.903%
same,PGI d12 (relative PGI release),[2]; [3],49.0323%
Oc1c(C(Nc2nc3ccccc3s2)c2ccc(OC(F)F)cc2)ccc2cccnc12 (stereo not drawn) [MMV019724],Viability d12 (relative viability),[1]; [4],220.792%
same,PGI d5 (relative PGI release),[2]; [3],0.06264%
same,PGI d12 (relative PGI release),[2]; [3],0.4013%
CN1CCN(c2ccc3[nH]c(-c4ccc5[nH]c(-c6ccc(O)cc6)nc5c4)nc3c2)CC1 [MMV020752],Viability d12 (relative viability),[1]; 10 µM,69.6365%
same,PGI d5 (relative PGI release),[2]; [3],-2.507%
same,PGI d12 (relative PGI release),[2]; [3],7.527%
Nc1nc(N)c2c(Sc3ccccc3)cccc2n1 [MMV021759],Viability d12 (relative viability),[1]; [4],37.4067%
same,PGI d5 (relative PGI release),[2]; [3],-5.79%
same,PGI d12 (relative PGI release),[2]; [3],-12.5973%
Cc1nc(Nc2ccc(F)cc2)nc(N2CCc3ccccc3C2C)c1C (stereo not drawn) [MMV030787],Viability d12 (relative viability),[1]; [4],56.6945%
same,PGI d5 (relative PGI release),[2]; [3],-1.879%
same,PGI d12 (relative PGI release),[2]; [3],-7.918%
